pIC50: −log10 of the molar value. Read-outs that look alike come from different tables or passages of the source.
Experiments:
[1] = tested on: Pseudomonas aeruginosa efflux− (MB9799), IMP-1; type: cell-based; settings: concentration restoring susceptibility to imipenem at 2 μg/mL in the presence of a class A, C, D serine β-lactamase inhibitor closely related to relebactam
Summary of the method: (§1)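 PAO1 pair, broth microdilution; fixed β-lactam (imipenem/ceftazidime) at ~CLSI breakpoint + fixed class A/C BLI for AmpC; serial MBLi titration; endpoint = MBLi conc. restoring susceptibility; MB9798:MB9799 ratio = efflux liability.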

[2] = tested on: Pseudomonas aeruginosa efflux+ (MB9798), IMP-1; type: cell-based; settings: concentration restoring susceptibility to imipenem at 2 μg/mL in the presence of a class A, C, D serine β-lactamase inhibitor closely related to relebactam
Summary of the method: as §1

VIM-1 = VIM-1 (Pseudomonas aeruginosa (strain ATCC 15692 / DSM 22644 / CIP 104116 / JCM 14847 / LMG 12228 / 1C / PRS 101 / PAO1), UniProt A0A0F7KYQ8); experiment: biochemical; settings: CCF2-FA substrate, 30 pM enzyme, 2 hours at 25° C.
Summary of the method: (§2)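 IC50 values derive from 4-parameter fits of percent inhibition against inhibitor concentration on semi-log axes. Activity was monitored by fluorescence with the CCF2-FA substrate after a 2-hour, 25° C incubation of compound, enzyme and substrate.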

[3] = tested on: Pseudomonas aeruginosa MB9798 vs MB9799; settings: ratio MITC95 PA_9798/MITC95 PA_9799
Summary of the method: as §1

NDM-1 = NDM-1 (Klebsiella pneumoniae, UniProt C7C422); experiment: biochemical; type: biochemical; settings: fluorescence assay, CCF2-FA substrate, 1 pM enzyme, 2 hours at 25° C.; read-out: NDM-1 IC50
Sequence of NDM-1 (C7C422 whole entry, looked up, species assumed): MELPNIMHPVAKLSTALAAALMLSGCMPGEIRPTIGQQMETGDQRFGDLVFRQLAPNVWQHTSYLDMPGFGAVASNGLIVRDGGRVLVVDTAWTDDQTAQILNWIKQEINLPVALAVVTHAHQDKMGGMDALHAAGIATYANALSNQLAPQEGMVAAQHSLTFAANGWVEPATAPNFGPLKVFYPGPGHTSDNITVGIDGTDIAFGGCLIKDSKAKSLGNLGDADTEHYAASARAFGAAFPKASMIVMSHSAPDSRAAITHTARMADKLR
Summary of the method: as §2

IMP-1 = IMP-1 (Serratia marcescens, UniProt P52699); experiment: biochemical; type: biochemical; settings: fluorescence assay, CCF2-FA substrate, 2 pM enzyme, 2 hours at 25° C.; read-out: IMP-1 IC50
Sequence of IMP-1 (P52699 whole entry, looked up, species assumed): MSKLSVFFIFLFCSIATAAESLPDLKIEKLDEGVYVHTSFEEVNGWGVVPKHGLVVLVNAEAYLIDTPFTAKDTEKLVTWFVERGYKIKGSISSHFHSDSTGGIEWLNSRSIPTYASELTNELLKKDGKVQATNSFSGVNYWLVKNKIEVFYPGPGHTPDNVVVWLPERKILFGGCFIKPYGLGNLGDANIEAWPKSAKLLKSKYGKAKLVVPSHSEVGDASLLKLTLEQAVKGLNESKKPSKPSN
Summary of the method: as §2

[4] = tested on: Serratia marcescens expressing IMP-1 (CL5741); type: cell-based; settings: with imipenem 1 μg/ml; 95% inhibition of bacterial growth
Summary of the method: (§3)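 Clinical strains grown overnight on blood agar at 35°C, colonies suspended in saline, diluted 1:100 into 1.1×CAMHB. Test compound titrated with imipenem at 1 μg/ml; incubated 22–24 h at 35°C, growth read by absorbance.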

[5] = tested on: Klebsiella pneumoniae expressing VIM-1 (IHMA599644); type: cell-based; settings: with imipenem 1 μg/ml; 95% inhibition of bacterial growth
Summary of the method: as §3

[6] = tested on: Escherichia coli expressing NDM-1 (CLB30005, CLB30016); type: cell-based; settings: with imipenem 1 μg/ml; 95% inhibition of bacterial growth
Summary of the method: as §3

[7] = fluorescence assay, read-out: VIM-1 IC50

Row | Compound | P. aeruginosa expressing IMP-1, efflux − (MB9799) MITC95 [1] | P. aeruginosa expressing IMP-1, efflux + (MB9798) MITC95 [2] | pIC50 (VIM-1; [7]) | Efflux ratio [3] | pIC50 (NDM-1) | pIC50 (IMP-1) | Serratia marcescens expressing IMP-1 (CL5741) MITC95 [4] | Klebsiella pneumoniae expressing VIM-1 (IHMA599644) MITC95 [5] | Escherichia coli expressing NDM-1 (CLB30016) MITC95 [6] | pIC50 (VIM-1; VIM-1 IC50, fluorescence assay)
1 | C[C@H](CN)NS(=O)(=O)c1ccc(-c2cncc(N)c2)c(-c2nn[nH]n2)c1S(N)(=O)=O [Example 221, (R)—N1-(1-aminopropan-2-yl)-4-(5-aminopyridin-3-yl)-3-(2H-tetrazol-5-yl)benzene-1,2-disulfonamide] | 1.563 µM | 1.563 µM | 9.82 | 1.00 | 9.55 | 9.16 | 1.563 µM | 6.25 µM | 1.563 µM | 
2 | NC[C@H](O)CNS(=O)(=O)c1ccc(-c2ccncc2N)c(-c2nn[nH]n2)c1S(N)(=O)=O [Example 222, (S)—N1-(3-amino-2-hydroxypropyl)-4-(3-aminopyridin-4-yl)-3-(2H-tetrazol-5-yl)benzene-1,2-disulfonamide] | 1.563 µM | 1.563 µM | 9.35 | 1.00 | 9.51 | 8.92 | 1.563 µM | 3.125 µM | 0.3906 µM | 
3 | NC[C@H](N)CNS(=O)(=O)c1ccc(-c2cnccc2N)c(-c2nn[nH]n2)c1S(N)(=O)=O [Example 223, (S)-4-(4-aminopyridin-3-yl)-N1-(2,3-diaminopropyl)-3-(2H-tetrazol-5-yl)benzene-1,2-disulfonamide] | 0.7813 µM | 1.563 µM |  | 2.00 | 8.76 | 8.35 | 0.3906 µM | 0.3906 µM | 0.09766 µM | 8.85
4 | NS(=O)(=O)c1c(S(=O)(=O)N[C@@H]2CCNC2)ccc(-c2cccc(-c3nc[nH]n3)c2)c1-c1nn[nH]n1 [Example 225, (R)-N4-(pyrrolidin-3-yl)-2-(2H-tetrazol-5-yl)-3′-(1H-1,2,4-triazol-3-yl)-[1,1′-biphenyl]-3,4-disulfonamide] | 1.563 µM | 1.563 µM | 10.25 | 1.00 | 10.59 | 9.96 | 1.563 µM | 3.125 µM | 3.125 µM | 
5 | N[C@@H](CO)CNS(=O)(=O)c1ccc(-c2cccc(C3N=CN=N3)c2)c(-c2nn[nH]n2)c1S(N)(=O)=O (stereo partly drawn) [Example 226, N4-((R)-2-amino-3-hydroxypropyl)-2-(2H-tetrazol-5-yl)-3′-(3H-1,2,4-triazol-3-yl)-[1,1′-biphenyl]-3,4-disulfonamide] | 3.125 µM | 6.25 µM | 9.02 | 2.00 | 9.13 | 8.49 | 3.125 µM | 12.5 µM | 6.25 µM | 
6 | NCC(CN)NS(=O)(=O)c1ccc(-c2cccc(-c3nc[nH]n3)c2)c(-c2nn[nH]n2)c1S(N)(=O)=O [Example 227, N4-(1,3-diaminopropan-2-yl)-2-(2H-tetrazol-5-yl)-3′-(1H-1,2,4-triazol-3-yl)-[1,1′-biphenyl]-3,4-disulfonamide] | 1.563 µM | 1.563 µM | 9.86 | 1.00 | 10.32 | 9.78 | 1.563 µM | 3.125 µM | 1.563 µM | 
7 | NCCNS(=O)(=O)c1ccc(-c2cccc(-c3n[nH]c(N)n3)c2)c(-c2nn[nH]n2)c1S(N)(=O)=O [Example 228, 3′-(5-amino-1H-1,2,4-triazol-3-yl)-N4-(2-aminoethyl)-2-(2H-tetrazol-5-yl)-[1,1′-biphenyl]-3,4-disulfonamide] | 1.563 µM | 1.563 µM | 9.82 | 1.00 | 10.06 | 9.25 | 1.563 µM | 3.125 µM | 0.7813 µM | 
8 | NCC(CN)NS(=O)(=O)c1ccc(-c2cccc(C3N=NC(N)=N3)c2)c(-c2nn[nH]n2)c1S(N)(=O)=O (stereo not drawn) [Example 229, 3′-(5-amino-3H-1,2,4-triazol-3-yl)-N4-(1,3-diaminopropan-2-yl)-2-(2H-tetrazol-5-yl)-[1,1′-biphenyl]-3,4-disulfonamide] | 3.125 µM | 1.563 µM | 9.92 | 0.50 | 10.51 | 9.76 | 3.125 µM | 3.125 µM | 0.7813 µM | 
9 | NC[C@@H](N)CNS(=O)(=O)c1ccc(-c2cccc(-c3n[nH]c(N)n3)c2)c(-c2nn[nH]n2)c1S(N)(=O)=O [Example 230, (R)-3′-(5-amino-1H-1,2,4-triazol-3-yl)-N4-(2,3-diaminopropyl)-2-(2H-tetrazol-5-yl)-[1,1′-biphenyl]-3,4-disulfonamide] | 1.563 µM | 1.563 µM | 9.70 | 1.00 | 10.23 | 9.45 | 1.563 µM | 3.125 µM | 1.563 µM | 
10 | Nc1nc(-c2cccc(-c3ccc(S(=O)(=O)N[C@@H]4CCNC4)c(S(N)(=O)=O)c3-c3nn[nH]n3)c2)n[nH]1 [Example 231, (R)-3′-(5-amino-1H-1,2,4-triazol-3-yl)-N4-(pyrrolidin-3-yl)-2-(2H-tetrazol-5-yl)-[1,1′-biphenyl]-3,4-disulfonamide] | 1.563 µM | 1.563 µM | 9.94 | 1.00 | 10.54 | 9.42 | 1.563 µM | 3.125 µM | 1.563 µM | 
11 | CN1CC[C@@H](NS(=O)(=O)c2ccc(-c3cccc4[nH]c(N)nc34)c(-c3nn[nH]n3)c2S(N)(=O)=O)C1 [Example 232, (R)-4-(2-amino-1H-benzo[d]imidazol-4-yl)-N^1-(1-methylpyrrolidin-3-yl)-3-(2H-tetrazol-5-yl)benzene-1,2-disulfonamide] | 0.7813 µM | 1.563 µM |  | 2.00 | 10.30 | 9.22 | 0.7813 µM | 1.563 µM | 0.3906 µM | 9.80
12 | Nc1nc2c(-c3ccc(S(=O)(=O)N[C@@H]4CCNC4)c(S(N)(=O)=O)c3-c3nn[nH]n3)cc(I)cc2[nH]1 [Example 234, (R)-4-(2-amino-6-iodo-1H-benzo[d]imidazol-4-yl)-N^1-(pyrrolidin-3-yl)-3-(2H-tetrazol-5-yl)benzene-1,2-disulfonamide] | 0.7813 µM | 0.7813 µM | 10.08 | 1.00 | 10.80 | 9.85 | 0.7813 µM | 0.7813 µM | 0.7813 µM | 

Source: patent US10221163B2 (priority 2015, dated 2019)
